From patent US11040966B2, “Benzimidazole-proline derivatives” (IDORSIA PHARMACEUTICALS LTD, priority 2012, dated 2021)
Like-named read-outs stand apart in the source and are kept apart here.

How the values were obtained:
[1] = Measurement of brain and systemic concentration after oral administration; assay type: in vivo; conditions: rat, male wistar rats, 3 h after oral administration (100 mg/kg), n=3
Experimental: Measurement of Brain and Systemic Concentration after Oral Administration:
In order to assess brain penetration, the concentration of the compound is measured in plasma ([P]), and brain ([B]), sampled 3 h (or at different time points) following oral administration (e.g. 100 mg/kg) to male wistar rats. The compounds are formulated e.g. in 100% PEG 400. Samples are collected in the same animal at the same time point (+/−5 min). Blood is sampled from the vena cava caudalis into containers with EDTA as anticoagulant and centrifuged to yield plasma. Brain is sampled after cardiac perfusion of 10 mL NaCl 0.9% and homogenized into one volume of cold phosphate buffer (pH 7.4). All samples are extracted with MeOH and analyzed by LC-MS/MS. Concentrations are determined with the help of calibration curves.

rodents = conditions: cited from earlier work
rats = rats treated with the compound; cited from earlier work
rat = conditions: cited from earlier work
mouse = conditions: administered chronically; cited from earlier work
humans = conditions: indication primary insomnia; cited from earlier work
[2] = tested on: amyloid precursor protein transgenic mice; conditions: after acute sleep restriction; cited from earlier work
[3] = brain, read-out: concentration of the compound in brain ([B])
[4] = plasma, read-out: concentration of the compound in plasma ([P])

In the case of `Cc1ccc(-c2ncccn2)c(C(=O)N2CCC[C@@]2(C)c2nc3cc(Br)cc(C)c3[nH]2)c1` [Example 5.277, [(S)-2-(5-Bromo-7-methyl-1H-benzoimidazol-2-yl)-2-methyl-pyrrolidin-1-yl]-(5-methyl-2-pyrimidin-2-yl-phenyl)-methanone], the concentration at 3 h [1, 3] is reported as 5880 ng/g and the concentration at 3 h [1, 4] is reported as 3560 ng/mL.

`COc1ccc(-n2nccn2)c(C(=O)N2CCC[C@@]2(C)c2nc3c(C)c(Cl)ccc3[nH]2)c1` [Example 5.36, [(S)-2-(5-Chloro-4-methyl-1H-benzoimidazol-2-yl)-2-methyl-pyrrolidin-1-yl]-(5-methoxy-2-[1,2,3]triazol-2-yl-phenyl)-methanone] gave a concentration at 3 h [1, 3] of 1810 ng/g and a concentration at 3 h [1, 4] of 1280 ng/mL.

In the case of `Cn1c(SCC(=O)N2CCC[C@H]2C(=O)Nc2ccccc2-c2ccccc2)nc2ccccc21` [N-biphenyl-2-yl-1-{[(1-methyl-1H-benzimidazol-2-yl)sulfanyl]acetyl}-L-prolinamide], the “behavioral (locomotor sensitization) and molecular (transcriptional responses) changes induced by repeated amphetamine administration” value (rodents) is listed as “reduced”.

In the case of `CNC(=O)[C@@H](c1ccccc1)N1CCc2cc(OC)c(OC)cc2[C@@H]1CCc1ccc(C(F)(F)F)cc1` [(2R)-2-{(1S)-6,7-dimethoxy-1-[2-(4-trifluoromethyl-phenyl)-ethyl]-3,4-dihydro-1H-isoquinolin-2-yl}-N-methyl-2-phenyl-acetamide], the “declarative and non-declarative learning and memory” value (rats) is listed as “intact”, the “activity in nicotine self-administration model” value (rat) is listed as “displayed pharmacological activity” and the “activity in mouse model of depression” value (mouse) is listed as “antidepressant-like activity”. The clinical efficacy (humans) was “showed clinical efficacy” and the “brain levels of amyloid-beta (Aβ) and Aβ plaque deposition” value [2] was “decreased”.

For `Cc1ccc(-n2nccn2)c(C(=O)N2CCC[C@@]2(C)c2nc3cc(Br)cc(C)c3[nH]2)c1` [Example 5.19, [(S)-2-(5-Bromo-7-methyl-1H-benzoimidazol-2-yl)-2-methyl-pyrrolidin-1-yl]-(5-methyl-2-[1,2,3]triazol-2-yl-phenyl)-methanone], the concentration at 3 h [1, 3] was 3880 ng/g and the concentration at 3 h [1, 4] was 2100 ng/mL.
